In the assay the target is T1, human GPR40 (Homo sapiens, UniProt O14842).
T1 construct: expressed in transfected cells; host or cells: HEK cells stably expressing the aequorin reporter
T1 sequence (O14842 whole entry): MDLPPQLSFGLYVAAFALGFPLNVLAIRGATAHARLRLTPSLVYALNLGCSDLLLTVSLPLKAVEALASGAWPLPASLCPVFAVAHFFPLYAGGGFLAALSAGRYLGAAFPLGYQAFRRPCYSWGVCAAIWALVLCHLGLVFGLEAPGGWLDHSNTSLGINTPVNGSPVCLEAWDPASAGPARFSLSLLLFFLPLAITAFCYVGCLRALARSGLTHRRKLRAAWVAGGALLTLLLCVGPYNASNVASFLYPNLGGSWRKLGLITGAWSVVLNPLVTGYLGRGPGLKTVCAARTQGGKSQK
As to the kind of experiment: Inositol Phosphate Turnover (IP1) Assay 2. The settings on record: HEK cells stably expressing human GPR40; 15,000 cells per well; compound acoustically transferred; CisBio IP-One kit. The class given is cell-based. The method, then: Human and mouse GPR40 stable cell-lines were generated in CHO cells stably expressing NFAT BLA (Beta-lactamase). A human GPR40 stable cell-line was generated in HEK cells stably expressing the aequorin expressing reporter. The expression plasmids were transfected using lipofectamine (Life Technologies) following manufacturer's instructions. Stable cell-lines were generated following drug selection.
Inositol Phosphate Turnover (IP1) Assay 2:
The assay was performed in 384-well format. HEK cells stably expressing human GPR40 were plated at 15,000 cells per well in growth medium (DMEM/10% fetal calf serum). Cell plates were then incubated 16 hours at 37 degrees in a 5% CO2 incubator.
Measurement of Inositol Phosphate Turnover (IP1) was performed using the CisBio IP-One kit (Part number 62IPAPEB). After the 16 hour incubation, the cells were washed with HEPES buffer and 10 ul of stimulation buffer (prepared as described in the kit) was added to each well. In a separate plate, compounds were diluted in DMSO (400-fold over the final concentration in the assay well) and 25 nl was acoustically transferred to the appropriate well in the assay cell plate. The plates were then incubated for 60 minutes at 37 degrees. 10 ul of detection buffer (also prepared as described in the IP-One kit) was added to each well and the plates were incubated for 60 minutes in the dark. The plates were then read in a Perkin Elmer EnVision or equivalent reader able to measure FRET. Fluorescent ratio of emission at 665 and 620 nm was then converted to IP1 concentration by back calculating from an IP1 standard curve prepared at the time of the assay.
What is called EC50 is the concentration that produces a half-maximal response. Low values mean an effect from little substance, high ones a need for much substance. `COc1cc(-c2ccc(C3CCc4ccc([C@H](C5CC5)[C@H](C)C(=O)O)cc4O3)cc2CN2CCC2C(F)(F)F)c(F)cn1` (some centres unmarked) [Example 72] returned an EC50 of 1.2 nM. With `COc1cc(-c2ccc(C3CCc4ccc([C@H](C5CC5)[C@H](C)C(=O)O)cc4O3)cc2CN2CCCC2(C)C)c(F)cn1` (mixture of isomers) [Example 66] the figure was 0.65 nM; with `COc1cc(-c2ccc(C3CCc4ccc([C@H](C5CC5)[C@H](C)C(=O)O)cc4O3)cc2CN2CCC(OC)CC2)c(F)cn1` (mixture of isomers) [Example 45], 12 nM. For `COc1cc(-c2ccc(C3CCc4ccc([C@H](C5CC5)[C@H](C)C(=O)O)cc4O3)cc2CN2CC[C@@H](C(F)(F)F)C2)c(F)cn1` (single isomer, unassigned) [Example 27] the value was 1.5 nM; for `COc1cc(-c2ncc(C3CCc4ccc([C@H](C5CC5)[C@H](C)C(=O)O)cc4O3)nc2CN2CCCC2)c(F)cn1` (stereo partly drawn) [Example 110, (2S,3R)-3-cyclopropyl-3-(2-(5-(5-fluoro-2-methoxypyridin-4-yl)-6-(pyrrolidin-1-ylmethyl)pyrazin-2-yl)chroman-7-yl)-2-methylpropanoic acid], 824 nM. For `COc1cc(-c2ccc(C3CCc4ccc([C@H](C5CC5)[C@H](C)C(=O)O)cc4O3)c(CN3CCCC3)c2)ccn1` (mixture of isomers) [Example 112] the value was 5.6 nM.

On to `COc1cc(-c2ccc([C@@H]3CCc4ccc([C@H](C5CC5)[C@H](C)C(=O)O)cc4O3)cc2CN2CCC(C)(C)CC2)c(F)cn1` [Example 155], for which the EC50 turned out to be 1.8 nM. In turn, `COc1cc(-c2ccc(C3CCc4ccc([C@H](C5CC5)[C@H](C)C(=O)O)cc4O3)cc2CN2CC[C@@H](OC)C2)c(F)cn1` (some centres unmarked) [Example 18] yielded an EC50 of 11 nM.

As to `COc1cc(-c2ccc(C3CCc4ccc([C@H](C5CC5)[C@H](C)C(=O)O)cc4O3)cc2CN2CCC2(C)C)c(F)cn1` (mixture of isomers) [Example 49], a half-maximal response (EC50) required 4 nM. With `COc1cc(-c2ccc(C3CCc4ccc([C@H](C5CC5)[C@H](C)C(=O)O)cc4O3)cc2CN2CC[C@@H](F)C2)c(F)cn1` (some centres unmarked) [Example 16] the figure was 2.3 nM; with `CCOc1cc(-c2ccc(C3CCc4ccc([C@H](C5CC5)[C@H](C)C(=O)O)cc4O3)cc2CN(CC)CC)c(F)cn1` (mixture of isomers) [Example 76], 8.2 nM. With `CCOc1cc(-c2ccc(C3CCc4ccc([C@H](C5CC5)[C@H](C)C(=O)O)cc4O3)cc2CN2CCCC2)c(Cl)cn1` (mixture of isomers) [Example 216] the figure was 86 nM; with `COc1cc(-c2ccc(C3CCc4ccc([C@H](C5CC5)[C@H](C)C(=O)O)cc4O3)cc2CN2CC[C@H](S(C)(=O)=O)C2)c(F)cn1` (some centres unmarked) [Example 6], 227 nM; with `COc1cc(-c2ccc(C3CCc4ccc([C@H](C5CC5)[C@H](C)C(=O)O)cc4O3)cc2CN2CCC[C@@H]2C)c(F)cn1` (some centres unmarked) [Example 38], 1.8 nM.

With `COc1c[nH]nc1-c1ccc([C@@H]2CCc3ccc([C@H](C4CC4)[C@H](C)C(=O)O)cc3O2)cc1CN1CCCC1` [Example 79, Sodium (2S,3R)-3-cyclopropyl-3-((S)-2-(4-(4-methoxy-1H-pyrazol-3-yl)-3-(pyrrolidin-1-ylmethyl)phenyl)chroman-7-yl)-2-methylpropanoate], it took 4840 nM to reach a half-maximal effect (EC50).

For the compound `COc1cc(-c2ccc([C@@H]3CCc4ccc([C@H](C5CC5)[C@H](C)C(=O)O)cc4O3)cc2CN2CCCC(C)(C)C2)c(F)cn1` [Example 143], it took 0.3 nM to reach a half-maximal effect (EC50). With `COc1cc(-c2ccc([C@@H]3CCc4ccc([C@H](C5CC5)[C@H](C)C(=O)O)cc4O3)cc2CN2CCCC2(C)C)c(F)cn1` [Example 160] the figure was 2.5 nM; with `COc1cc(-c2ccc(C3CCc4ccc([C@H](C5CC5)[C@H](C)C(=O)O)cc4O3)cc2CN2CCC3OCCC32)c(F)cn1` (some centres unmarked) [Example 39], 2.1 nM. Compound `COc1cc(-c2ccc(C3CCc4ccc([C@H](C5CC5)[C@H](C)C(=O)O)cc4O3)cc2CN2CCNCC2)c(F)cn1` (mixture of isomers) [Example 33] came in with an EC50 of 573 nM.

`COc1cc(-c2ccc(C3CCc4ccc([C@H](C5CC5)[C@H](C)C(=O)O)cc4O3)cc2CN2CCOC3(CC3)C2)c(F)cn1` (mixture of isomers) [Example 42]: the EC50 was 3.1 nM. In turn, `COc1cc(-c2ccc(C3CCc4ccc([C@H](C5CC5)[C@H](C)C(=O)O)cc4O3)cc2CN2CCC(F)(F)C2)c(F)cn1` (single isomer, unassigned) [Example 32] showed a concentration giving a half-maximal response (EC50) of 0.84 nM. For `COc1cc(-c2ccc([C@@H]3CCc4ccc([C@H](C5CC5)[C@H](C)C(=O)O)cc4O3)cc2CN2[C@H](C)CC[C@H]2C)c(F)cn1` [Example 161] the value was 0.6 nM.

Turning to `COc1cc(-c2ccc(C3CCc4ccc([C@H](C5CC5)[C@H](C)C(=O)O)cc4O3)cc2CN2CC(C)(OC)C2)c(F)cn1` (mixture of isomers) [Example 73], it took 8.2 nM to reach a half-maximal effect (EC50). `COc1cc(-c2ccc([C@@H]3CCc4ccc([C@H](C5CC5)[C@H](C)C(=O)O)cc4O3)cc2CN2C3CCC2CC3)c(F)cn1` [Example 162]: the EC50 was determined as 5.4 nM. With `COc1cc(-c2cc(F)c(C3CCc4ccc([C@H](C5CC5)[C@H](C)C(=O)O)cc4O3)cc2CN2CCCC2)ccn1` (stereo partly drawn) [Example 180, 1RS, (2S, 3R)-3-cyclopropyl-3-(2-(2-fluoro-4-(2-methoxypyridin-4-yl)-5-(pyrrolidin-1-ylmethyl)phenyl)chroman-7-yl)-2-methylpropanoic acid] the figure was 41 nM; with `COc1cc(-c2ccc(C3CCc4ccc([C@H](C5CC5)[C@H](C)C(=O)O)cc4O3)cc2CN2CC[C@H](F)C2)c(F)cn1` (single isomer, unassigned) [Example 26], 2.5 nM. As to `CCOc1cc(-c2ccc(C3CCc4ccc([C@H](C5CC5)[C@H](C)C(=O)O)cc4O3)cc2CN2CCCC2)c(F)cn1` (some centres unmarked) [Example 77], the half-maximal effective concentration (EC50) came to 29 nM. For `COc1cc(-c2ccc(C3CCc4ccc([C@H](C5CC5)[C@H](C)C(=O)O)cc4O3)cc2CN2C3CCC2COC3)c(F)cn1` (some centres unmarked) [Example 68] the value was 0.7 nM. With `COc1cc(-c2ccc([C@@H]3CCc4ccc([C@H](C5CC5)[C@H](C)C(=O)O)cc4O3)cc2CN2CCC[C@@H]2C)c(F)cn1` [Example 140] the figure was 1.8 nM; with `COc1cc(-c2ccc([C@H]3CCc4ccc([C@H](C5CC5)[C@H](C)C(=O)O)cc4O3)cc2[C@H](C)N(C)C)c(F)cn1` [Example 80, (2S,3R)-3-cyclopropyl-3-((R)-2-(3-((S)-1-(dimethylamino)ethyl)-4-(5-fluoro-2-methoxypyridin-4-yl)phenyl)chroman-7-yl)-2-methylpropanoic acid], 11 nM; with `CCN(CC)Cc1cc([C@H]2CCc3ccc([C@H](C4CC4)[C@H](C)C(=O)O)cc3O2)ccc1-c1cc(OC)ncc1F` [Example 145], 2.7 nM. Turning to `COC[C@H]1CCCN1Cc1cc(C2CCc3ccc([C@H](C4CC4)[C@H](C)C(=O)O)cc3O2)ccc1-c1cc(OC)ncc1F` (some centres unmarked) [Example 44], the EC50 is 1.8 nM. With `COc1cc(-c2ccc(C3CCc4ccc([C@H](C5CC5)[C@H](C)C(=O)O)cc4O3)cc2CN2CCn3cncc3C2)c(F)cn1` (mixture of isomers) [Example 40] the figure was 184 nM; with `COc1cc(-c2ccc(C3CCc4ccc([C@H](C5CC5)[C@H](C)C(=O)O)cc4O3)cc2CN2CC[C@@H](O)C2)c(F)cn1` (some centres unmarked) [Example 8], 238 nM; with `COc1cc(-c2ccc([C@H]3CCc4ccc([C@H](C5CC5)[C@H](C)C(=O)O)cc4O3)cc2CN2C3CCC2CC3)c(F)cn1` [Example 148], 4.2 nM. As for `COc1cc(-c2ccc(C3CCc4ccc([C@H](C5CC5)[C@H](C)C(=O)O)cc4O3)cc2CN2CCCC(C)(C)C2)c(F)cn1` (mixture of isomers) [Example 55], the midpoint of the response, the EC50, lay at 0.73 nM. As for `COc1cc(-c2ccc([C@H]3CCc4ccc([C@H](C5CC5)[C@H](C)C(=O)O)cc4O3)cc2CN2CCCC[C@@H]2C)c(F)cn1` [Example 168], a half-maximal effect (EC50) was put at 2.9 nM. For the compound `COc1cc(-c2ccc([C@H]3CCc4ccc([C@H](C5CC5)[C@H](C)C(=O)O)cc4O3)cc2[C@H](C)N(C)C)c(F)cn1` [Example 82, (2S,3R)-3-cyclopropyl-3-((R)-2-(3-((S)-1-(dimethylamino)ethyl)-4-(5-fluoro-2-methoxypyridin-4-yl)phenyl)chroman-7-yl)-2-methylpropanoic acid], the EC50 was found to be 13 nM. With `COc1cc(-c2ccc([C@H]3CCc4ccc([C@H](C5CC5)[C@H](C)C(=O)O)cc4O3)cc2CN2CCC[C@H]2C)c(F)cn1` [Example 137] the figure was 4.6 nM; with `COc1cc(-c2ccc(C3CCc4ccc([C@H](C5CC5)[C@H](C)C(=O)O)cc4O3)cc2CN2CCOCC2)c(F)cn1` (single isomer, unassigned) [Example 11a], 1.7 nM; with `COc1cc(-c2ccc(C3CCc4ccc([C@H](C5CCC5)[C@H](C)C(=O)O)cc4O3)cc2CN2CCCC2)c(F)cn1` (single isomer, unassigned) [Example 92], 4 nM.

The values above are taken from US10968193B2, “Antidiabetic bicyclic compounds” (Merck Sharp & Dohme Corp., priority 2014, dated 2021).
